Test results from EP4549424A1, “NEW LITHIUM EXTRACTING AGENT AND LIQUID ORGANIC MIXTURE THEREOF, AND METHOD FOR EXTRACTING LITHIUM BY MEANS OF EXTRACTION” (Beijing Salt Lake Technology Development Company Limited, priority 2022, dated 2024).

What was measured:
Details in all cases: organic phase and phase ratio per example
[1] = Liquid-liquid extraction from aqueous lithium-containing solution, ICP detection: lithium;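 also: component concentrations in the aqueous phase were measured by inductively coupled plasma optical emission spectrometry after shaking and phase separation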
[2] = Liquid-liquid extraction from aqueous lithium-containing solution, ICP detection: sodium;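 also: sodium measured by inductively coupled plasma optical emission spectrometry in the diluted aqueous phase left after shaking with the organic phase and phase separation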
[3] = Liquid-liquid extraction from aqueous lithium-containing solution, ICP detection: potassium;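 also: analysis by ICP optical emission spectrometry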
[4] = feed B7 (cLi 0.833, cNa 55.60, cK 5.37 g/L, pH 12.05), 26°C
[5] = feed B1 (cLi 0.807, cNa 56.12 g/L, pH 11.48)
[6] = feed B2 (cLi 0.947, cNa 51.63 g/L, pH 10.77)
[7] = feed B4 (cLi 0.152, cNa 34.20, cK 2.36 g/L, pH 9.14)
[8] = feed B3 (cLi 0.937, cNa 119.10, cK 43.03 g/L, pH 9.60)
[9] = feed B5 (cLi 0.261, cNa 39.98, cK 7.61 g/L, pH 9.49)

2-hydroxy-5-fluoroacetophenone [Example 40]
cLi, remaining aqueous phase R1 [1, 4]: 0.417 g/L
extraction rate for lithium ions [1, 4]: 50%
separation factor of Li/Na [1, 4]: 8.6
cNa, remaining aqueous phase R1 [2, 4]: 49.81 g/L
extraction rate for sodium ions [2, 4]: 10.4%
cK, remaining aqueous phase R1 [3, 4]: 4.86 g/L
extraction rate for potassium ions [3, 4]: 9.5%

2-hydroxydibenzophenone [Example 2]
cLi, remaining aqueous phase R1 [1, 5]: 0.362 g/L
extraction rate for lithium ions [1, 5]: 55.1%
separation factor of Li/Na [1, 5]: 10.5
cNa, remaining aqueous phase R1 [2, 5]: 50.23 g/L
extraction rate for sodium ions [2, 5]: 10.5%

2-hydroxydibenzophenone [Example 29]
extraction rate for lithium ions [1, 6]: 73.3%
separation factor of Li/Na [1, 6]: 72.8
extraction rate for sodium ions [2, 6]: 2.32%

4-dodecyloxy-5-bromo-2-hydroxydibenzophenone [Example 14]
extraction rate for lithium ions [1, 7]: 48.7%
separation factor of Li/K [1, 7]: 2.8
separation factor of Li/Na [1, 7]: 15.3
extraction rate for sodium ions [2, 7]: 5.8%
extraction rate for potassium ions [3, 7]: 25.0%

CCC(O)C(=O)c1ccccc1 (single isomer, unassigned) [Example 4, 2-hydroxybutyrophenone]
extraction rate for lithium ions [1, 5]: 60.1%
separation factor of Li/Na [1, 5]: 29.8
extraction rate for sodium ions [2, 5]: 4.8%

CCC(O)C(=O)c1ccccc1 (single isomer, unassigned) [Example 5, 2-hydroxybutyrophenone]
extraction rate for lithium ions [1, 5]: 80.5%
separation factor of Li/Na [1, 5]: 57.0
extraction rate for sodium ions [2, 5]: 6.8%

CC(=O)CC(=O)c1ccccc1 [Comparative Example 1, benzoyl acetone, reference compound]
extraction rate for lithium ions [1, 8]: 53.0%
separation factor of Li/Na [1, 8]: 19.6
extraction rate for sodium ions [2, 8]: 5.43%
cK, remaining aqueous phase R1 [3, 8]: 41.79 g/L

CC(=O)CC(=O)c1ccccc1 [Comparative Example 2, benzoyl acetone, reference compound]
extraction rate for lithium ions [1, 9]: 23.4%
separation factor of Li/Na [1, 9]: 6.54
extraction rate for sodium ions [2, 9]: 4.45%
cK, remaining aqueous phase R1 [3, 9]: 7.52 g/L

O=C(CC(=O)c1ccccc1)c1ccccc1 [Comparative Example 3, 1,3-diphenyl-1,3-propanedione, reference compound]
cLi, remaining aqueous phase R1 [1, 8]: 0.377 g/L
extraction rate for lithium ions [1, 8]: 59.76%
separation factor of Li/Na [1, 8]: 45.3
cNa, remaining aqueous phase R1 [2, 8]: 115.32 g/L
extraction rate for sodium ions [2, 8]: 3.17%
cK, remaining aqueous phase R1 [3, 8]: 43.21 g/L

O=C(CC(=O)c1ccccc1)c1ccccc1 [Comparative Example 4, 1,3-diphenyl-1,3-propanedione, reference compound]
cLi, remaining aqueous phase R1 [1, 9]: 0.186 g/L
extraction rate for lithium ions [1, 9]: 28.73%
separation factor of Li/Na [1, 9]: 8.3
cNa, remaining aqueous phase R1 [2, 9]: 38.12 g/L
extraction rate for sodium ions [2, 9]: 4.65%
cK, remaining aqueous phase R1 [3, 9]: 7.60 g/L

CCCCCCCCCCCCCCCCCC(=O)CC(=O)c1ccccc1 [Comparative Example 5, stearoylbenzoylmethane, reference compound]
cLi, remaining aqueous phase R1 [1, 8]: 0.577 g/L
extraction rate for lithium ions [1, 8]: 38.42%
separation factor of Li/Na [1, 8]: 12.8
cNa, remaining aqueous phase R1 [2, 8]: 113.57 g/L
extraction rate for sodium ions [2, 8]: 4.64%
cK, remaining aqueous phase R1 [3, 8]: 41.03 g/L

Cc1ccc(C(=O)CC(=O)C(F)(F)F)cc1 [Comparative Example 6, 4,4,4-trifluoro-1-(4-tolyl)-1,3-butanedione, reference compound]
extraction rate for lithium ions [1, 8]: 81.11%
separation factor of Li/Na [1, 8]: 125.8
extraction rate for sodium ions [2, 8]: 3.30%
cK, remaining aqueous phase R1 [3, 8]: 42.11 g/L

CC1=NN(c2ccccc2)C(=O)C1C(=O)c1ccccc1 (centres unmarked) [Comparative Example 7, 1-phenyl-3-methyl-4-benzoyl-5-pyrazolone, reference compound]
extraction rate for lithium ions [1, 8]: 1.28%
separation factor of Li/Na [1, 8]: 1.17
extraction rate for sodium ions [2, 8]: 1.09%
cK, remaining aqueous phase R1 [3, 8]: 42.96 g/L

CC1=NN(c2ccccc2)C(=O)C1C(=O)c1ccccc1 (centres unmarked) [Comparative Example 8, 1-phenyl-3-methyl-4-benzoyl-5-pyrazolone, reference compound]
extraction rate for lithium ions [1, 5]: 7.43%
separation factor of Li/Na [1, 5]: 1.74
extraction rate for sodium ions [2, 5]: 4.40%

CC(O)C(=O)c1ccccc1 (centres unmarked) [Example 3, 2-hydroxypropiophenone]
cLi, remaining aqueous phase R1 [1, 5]: 0.383 g/L
extraction rate for lithium ions [1, 5]: 52.5%
separation factor of Li/Na [1, 5]: 14.3
cNa, remaining aqueous phase R1 [2, 5]: 52.10 g/L
extraction rate for sodium ions [2, 5]: 7.2%

CC(=O)c1ccc(OCc2ccccc2)cc1O [Example 6, 4-benzyloxy-2-hydroxyacetophenone]
extraction rate for lithium ions [1, 5]: 34.7%
separation factor of Li/Na [1, 5]: 37.7
extraction rate for sodium ions [2, 5]: 1.4%
